Reference: publication PMC7889890, “Structure of photosystem I-LHCI-LHCII from the green alga Chlamydomonas reinhardtii in State 2” (Nature Communications, 2021)
Values belong to the molecule of their own block, whether it stands above or below them.

Key:
[1] = target: T1, PsaH (Chlamydomonas reinhardtii, UniProt P13352); assay type: binding; settings: Bcr204; native supercomplex
T1 construct: mature PSI core subunit within native PSI-LHCI-LHCII supercomplex purified from state 2 thylakoids
T1 sequence (P13352 31-130): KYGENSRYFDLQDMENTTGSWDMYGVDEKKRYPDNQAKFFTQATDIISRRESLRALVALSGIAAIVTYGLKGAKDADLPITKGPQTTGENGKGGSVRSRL

[2] = target: T2, PsaA (Chlamydomonas reinhardtii, UniProt P12154); assay type: binding; settings: Bcr850; native supercomplex
T2 construct: PSI core subunit within native PSI-LHCI-LHCII supercomplex purified from state 2 thylakoids

[3] = target: T3, PsaL (Chlamydomonas reinhardtii, UniProt A8IL32); assay type: binding; settings: Bcr201, Bcr205, Bcr206; native supercomplex
T3 construct: gene CHLRE_12g486300v5; mature PSI core subunit within native PSI-LHCI-LHCII supercomplex purified from state 2 thylakoids
T3 sequence (A8IL32 36-196): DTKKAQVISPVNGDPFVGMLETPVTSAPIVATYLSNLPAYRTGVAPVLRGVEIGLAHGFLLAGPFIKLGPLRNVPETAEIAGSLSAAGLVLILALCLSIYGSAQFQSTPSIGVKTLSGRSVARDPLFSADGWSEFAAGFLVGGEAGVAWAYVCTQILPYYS

[4] = target: T4, PsaD (Chlamydomonas reinhardtii (endogenous …, UniProt Q39615 36-196)); experiment: cryo-EM structure; single-particle cryo-EM of the PSI-LHCI-LHCII supercomplex purified from state 2 cells; 3.42 Å overall; 10 mM Hepes-KOH pH 7.5, 50 mM NaCl, 1 mM NaN3, 10 mM NaF, 0.01% α-DDM; settings: both partners purified
T4 construct: PSI core subunit PsaD of C. reinhardtii; source: endogenous, C. reinhardtii CC-137 cells in state 2; thylakoid membranes solubilised with α-DDM, PSI-LHCI-LHCII purified (sucrose density gradient, gel filtration)
T4 sequence (looked up): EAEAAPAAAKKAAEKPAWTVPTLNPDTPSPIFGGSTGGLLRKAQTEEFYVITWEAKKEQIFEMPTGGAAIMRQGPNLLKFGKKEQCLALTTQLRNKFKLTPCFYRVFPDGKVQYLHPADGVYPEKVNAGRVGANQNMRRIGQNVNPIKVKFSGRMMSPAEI

T2 sequence (P12154 whole entry): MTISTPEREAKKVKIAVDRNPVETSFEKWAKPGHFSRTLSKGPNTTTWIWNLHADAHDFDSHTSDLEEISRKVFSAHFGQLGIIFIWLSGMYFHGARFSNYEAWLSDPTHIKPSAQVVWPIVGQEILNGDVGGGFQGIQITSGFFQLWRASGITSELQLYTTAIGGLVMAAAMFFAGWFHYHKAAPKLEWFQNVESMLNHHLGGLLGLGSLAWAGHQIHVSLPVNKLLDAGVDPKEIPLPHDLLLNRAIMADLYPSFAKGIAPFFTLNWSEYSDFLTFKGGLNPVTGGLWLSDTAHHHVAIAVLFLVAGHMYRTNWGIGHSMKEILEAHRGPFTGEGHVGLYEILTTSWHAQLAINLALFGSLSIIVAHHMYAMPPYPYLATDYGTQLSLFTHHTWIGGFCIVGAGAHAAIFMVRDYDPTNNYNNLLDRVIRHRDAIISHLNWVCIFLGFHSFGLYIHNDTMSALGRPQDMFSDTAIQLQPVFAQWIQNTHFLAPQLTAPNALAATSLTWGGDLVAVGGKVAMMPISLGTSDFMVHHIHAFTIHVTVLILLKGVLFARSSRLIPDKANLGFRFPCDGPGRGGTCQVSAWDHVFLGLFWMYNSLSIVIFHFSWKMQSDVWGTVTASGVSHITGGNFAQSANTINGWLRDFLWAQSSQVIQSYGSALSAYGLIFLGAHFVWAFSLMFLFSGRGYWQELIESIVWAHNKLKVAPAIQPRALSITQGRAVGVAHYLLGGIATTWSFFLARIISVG

Molecule: CC1=C(/C=C/C(C)=C/C=C/C(C)=C/C=C/C=C(C)/C=C/C=C(C)/C=C/C2=C(C)CCCC2(C)C)C(C)(C)CCC1 [BCR]
cryo-EM structure, 3.42 Å [1]: one BCR (Bcr204) were found to bind to PsaH in the present structure
cryo-EM structure, 3.42 Å [2]: Bcr850 of PsaA interacts with helix A of PsaO
cryo-EM structure, 3.42 Å [3]: three BCRs (Bcr201, Bcr205 and Bcr206) were observed in the green algal PsaL

binding result [4]: binds
B1: PsaH (natural protein, UniProt P13352 31-130, looked up)
chain: T1 sequence (P13352 31-130)
notes: PSI core subunit PsaH of C. reinhardtii; also called Cr-PsaH; source: endogenous, C. reinhardtii CC-137 cells in state 2; thylakoid membranes solubilised with α-DDM, PSI-LHCI-LHCII purified (sucrose density gradient, gel filtration)
